Measurements as given in US20250034110A1, “LPAR1 ANTAGONISTS AND USES THEREOF” (Pipeline Therapeutics, Inc., priority 2021, published 2025).
pIC50: −log10 of the molar value. Where two headings read alike, the source gives them in different places.

Target: human LPAR1 (Homo sapiens, UniProt Q92633)
Experiment: In vitro functional assay of lysophosphatidic acid receptor 1 activity (calcium flux)
Assay type: cell-based
[1] = B103 cells stably expressing human LPAR1, calcium flux (Fluo-4 NW) after lysophosphatidic acid (18:1) at EC80, 100 pM to 10 μM, read-out: LPAR1 IC50

human LPAR1, sequence (Q92633 whole entry): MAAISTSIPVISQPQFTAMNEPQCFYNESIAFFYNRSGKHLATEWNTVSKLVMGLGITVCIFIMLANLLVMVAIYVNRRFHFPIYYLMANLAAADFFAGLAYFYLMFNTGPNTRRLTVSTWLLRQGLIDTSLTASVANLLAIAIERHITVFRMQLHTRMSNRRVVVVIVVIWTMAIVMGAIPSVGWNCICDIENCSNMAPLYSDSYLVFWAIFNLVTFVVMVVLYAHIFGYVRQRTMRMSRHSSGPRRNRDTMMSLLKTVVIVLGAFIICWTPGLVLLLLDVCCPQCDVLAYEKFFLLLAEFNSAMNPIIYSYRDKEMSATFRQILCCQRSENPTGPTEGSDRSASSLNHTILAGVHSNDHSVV

SMILES | pIC50 (LPAR1 IC50) | pIC50 [1]
CC(=O)N1CCC(N(C(=O)Nc2ccc(C)nc2OC(F)F)c2cccnc2C(C)C)CC1 [Example 31, 1-(1-acetylpiperidin-4-yl)-3-(2-(difluoromethoxy)-6-methylpyridin-3-yl)-1-(2-isopropylpyridin-3-yl)urea] | 6.00 to 7.00 | 
CC(=O)N1CCC(N(C(=O)Nc2ccc(C)nc2OC(F)F)c2cccc(C(C)C)c2)CC1 [Example 32, 1-(1-acetylpiperidin-4-yl)-3-(2-(difluoromethoxy)-6-methylpyridin-3-yl)-1-(3-isopropylphenyl)urea] | 6.00 to 7.00 | 
CC(=O)N1CCC(N(C(=O)Nc2ccc(C)nc2OC(F)F)c2cccc(C)c2)CC1 [Example 33, 1-(1-acetylpiperidin-4-yl)-3-(2-(difluoromethoxy)-6-methylpyridin-3-yl)-1-(m-tolyl)urea] | < 6.00 | 
CC(=O)N1CCC(N(C(=O)Nc2ccc(C)nc2OC(F)F)c2ccccc2C(F)F)CC1 [Example 34, 1-(1-acetylpiperidin-4-yl)-3-(2-(difluoromethoxy)-6-methylpyridin-3-yl)-1-(2-(difluoromethyl)phenyl)urea] | < 6.00 | 
COC(C)c1ccccc1N(C(=O)Nc1ccc(C)nc1OC(F)F)C1CCN(C(C)=O)CC1 (stereo not drawn) [Example 35, 1-(1-acetylpiperidin-4-yl)-3-(2-(difluoromethoxy)-6-methylpyridin-3-yl)-1-(2-(1-methoxyethyl)phenyl)urea] | 6.00 to 7.00 | 
CC(=O)N1CCC(N(C(=O)Nc2ccc(C)nc2OC(F)F)c2cnccc2C(C)C)CC1 [Example 36, 1-(1-acetylpiperidin-4-yl)-3-(2-(difluoromethoxy)-6-methylpyridin-3-yl)-1-(4-isopropylpyridin-3-yl)urea] | 6.00 to 7.00 | 
COc1ccc(NC(=O)N(c2ccccc2C(C)C)[C@@H]2CCN(C3COC3)C2)c(OC(F)F)n1 [Example 37, (R)-3-(2-(difluoromethoxy)-6-methoxypyridin-3-yl)-1-(2-isopropylphenyl)-1-(1-(oxetan-3-yl)pyrrolidin-3-yl)urea] |  | 6.00 to 7.00
COc1ccc(NC(=O)N(c2ccccc2C(C)C)[C@H]2CCN(C3COC3)C2)c(OC(F)F)n1 [Example 38, (S)-3-(2-(difluoromethoxy)-6-methoxypyridin-3-yl)-1-(2-isopropylphenyl)-1-(1-(oxetan-3-yl)pyrrolidin-3-yl)urea] |  | 6.00 to 7.00
COc1ccc(NC(=O)N(c2ccccc2C(C)C)[C@H]2CC[C@@H](OC)CC2)c(OC(F)F)n1 [Example 39, 3-(2-(difluoromethoxy)-6-methoxypyridin-3-yl)-1-(2-isopropylphenyl)-1-((1s,4s)-4-methoxycyclohexyl)urea] |  | 6.00 to 7.00
COc1ccc(NC(=O)N(c2ccccc2C(C)C)[C@H]2CC[C@H](OC)CC2)c(OC(F)F)n1 [Example 40, 3-(2-(difluoromethoxy)-6-methoxypyridin-3-yl)-1-(2-isopropylphenyl)-1-((1r,4r)-4-methoxycyclohexyl)urea] |  | 7.00 to 8.00
COc1ccc(NC(=O)N(c2ccccc2C(C)C)C2CN(C(C)=O)C2)c(OC(F)F)n1 [Example 41, 1-(1-acetylazetidin-3-yl)-3-(2-(difluoromethoxy)-6-methoxypyridin-3-yl)-1-(2-isopropylphenyl)urea] |  | 6.00 to 7.00
COc1ccc(NC(=O)N(c2cccc(C)c2C)C2CCN(C(C)=O)CC2)c(OC(F)F)n1 [Example 42, 1-(1-acetylpiperidin-4-yl)-3-(2-(difluoromethoxy)-6-methoxypyridin-3-yl)-1-(2,3-dimethylphenyl)urea] | 6.00 to 7.00 | 
COc1ccc(NC(=O)N(c2ccccc2C(C)C)C2CCCN(C(C)=O)C2)c(OC(F)F)n1 (stereo not drawn) [Example 43, 1-(1-acetylpiperidin-3-yl)-3-(2-(difluoromethoxy)-6-methoxypyridin-3-yl)-1-(2-isopropylphenyl)urea] |  | 6.00 to 7.00
COc1ccc(NC(=O)N(c2ccccc2C(C)C)C2CCN(C)C(=O)C2)c(OC(F)F)n1 (stereo not drawn) [Example 44, 3-(2-(difluoromethoxy)-6-methoxypyridin-3-yl)-1-(2-isopropylphenyl)-1-(1-methyl-2-oxopiperidin-4-yl)urea] |  | 7.00 to 8.00
COc1ccc(NC(=O)N(c2ccccc2C(C)C)C2CCCN(C)C2=O)c(OC(F)F)n1 (stereo not drawn) [Example 45, 3-(2-(difluoromethoxy)-6-methoxypyridin-3-yl)-1-(2-isopropylphenyl)-1-(1-methyl-2-oxopiperidin-3-yl)urea] |  | 6.00 to 7.00
COc1ccc(NC(=O)N(c2ccccc2C(C)C)[C@H]2CCN(C(C)=O)C[C@H]2F)c(OC(F)F)n1 [Example 48, 1-((3R,4S)-1-acetyl-3-fluoropiperidin-4-yl)-3-(2-(difluoromethoxy)-6-methoxypyridin-3-yl)-1-(2-isopropylphenyl)urea] | 7.00 to 8.00 | 
COc1ccc(NC(=O)N(c2ccccc2C(C)C)[C@@H]2CCN(C(C)=O)C[C@@H]2F)c(OC(F)F)n1 [Example 49, 1-((3S,4R)-1-acetyl-3-fluoropiperidin-4-yl)-3-(2-(difluoromethoxy)-6-methoxypyridin-3-yl)-1-(2-isopropylphenyl)urea] | 7.00 to 8.00 | 

SMILES | pIC50 (LPAR1 IC50) | pIC50 [1]
COc1ccc(NC(=O)N(c2ccccc2C(C)C)C2C3CC2CN(C(C)=O)C3)c(OC(F)F)n1 (stereo not drawn) [Example 53, 1-(3-acetyl-3-azabicyclo[3.1.1]heptan-6-yl)-3-(2-(difluoromethoxy)-6-methoxypyridin-3-yl)-1-(2-isopropylphenyl)urea] | 6.00 to 7.00 | 
COc1ccc(NC(=O)N(c2ccccc2C(C)C)[C@@H]2C[C@H]3CC[C@@H](C2)N3C(C)=O)c(OC(F)F)n1 [Example 54, 1-((1R,3s,5S)-8-acetyl-8-azabicyclo[3.2.1]octan-3-yl)-3-(2-(difluoromethoxy)-6-methoxypyridin-3-yl)-1-(2-isopropylphenyl)urea] | 7.00 to 8.00 | 
COc1ccc(NC(=O)N(c2ccccc2C(C)C)[C@@H]2C[C@H]3CC[C@@H](C2)N3C(C)=O)c(OC(F)F)n1 [Example 55, 1-((1R,3r,5S)-8-acetyl-8-azabicyclo[3.2.1]octan-3-yl)-3-(2-(difluoromethoxy)-6-methoxypyridin-3-yl)-1-(2-isopropylphenyl)urea] | 6.00 to 7.00 | 
COc1ccc(NC(=O)N(c2ccccc2C(C)C)[C@@H]2[C@@H]3CC[C@H]2CN(C(C)=O)C3)c(OC(F)F)n1 [Example 56, 1-((1R,5S,8s)-3-acetyl-3-azabicyclo[3.2.1]octan-8-yl)-3-(2-(difluoromethoxy)-6-methoxypyridin-3-yl)-1-(2-isopropylphenyl)urea] | 6.00 to 7.00 | 
COc1ccc(NC(=O)N(c2ccccc2C(C)C)C2CC3CC2CN3C(C)=O)c(OC(F)F)n1 (stereo not drawn) [Example 57, 1-(2-acetyl-2-azabicyclo[2.2.1]heptan-5-yl)-3-(2-(difluoromethoxy)-6-methoxypyridin-3-yl)-1-(2-isopropylphenyl)urea] | 6.00 to 7.00 | 
COc1ccc(NC(=O)N(c2ccccc2C(C)C)[C@@H]2C[C@H]3C[C@@H]2CN3C(C)=O)c(OC(F)F)n1 [Example 58, 1-((1R,4R,5R)-2-acetyl-2-azabicyclo[2.2.1]heptan-5-yl)-3-(2-(difluoromethoxy)-6-methoxypyridin-3-yl)-1-(2-isopropylphenyl)urea] | < 6.00 | 
COc1ccc(NC(=O)N(c2ccccc2C(C)C)C23CCN(C(C)=O)CC2C3)c(OC(F)F)n1 (stereo not drawn) [Example 61, 1-(3-acetyl-3-azabicyclo[4.1.0]heptan-6-yl)-3-(2-(difluoromethoxy)-6-methoxypyridin-3-yl)-1-(2-isopropylphenyl)urea] | 7.00 to 8.00 | 
COC(=O)N1CCC(N(C(=O)Nc2ccc(OC)nc2OC(F)F)c2ccccc2C(C)C)CC1 [Example 63, methyl 4-(3-(2-(difluoromethoxy)-6-methoxypyridin-3-yl)-1-(2-isopropylphenyl)ureido)piperidine-1-carboxylate] | 7.00 to 8.00 | 
CNC(=O)N1CCC(N(C(=O)Nc2ccc(OC)nc2OC(F)F)c2ccccc2C(C)C)CC1 [Example 64, 4-(3-(2-(difluoromethoxy)-6-methoxypyridin-3-yl)-1-(2-isopropylphenyl)ureido)-N-methylpiperidine-1-carboxamide] | 7.00 to 8.00 | 
COc1ccc(NC(=O)N(c2ccccc2C(C)C)C2CCN(C(N)=O)CC2)c(OC(F)F)n1 [Example 65, 4-(3-(2-(difluoromethoxy)-6-methoxypyridin-3-yl)-1-(2-isopropylphenyl)ureido)piperidine-1-carboxamide] | 7.00 to 8.00 | 
CC(=O)N1CCC(N(C(=O)Nc2ccc(C)nc2OC(F)F)c2ccccc2C(C)C)CC1 [Example 66, 1-(1-acetylpiperidin-4-yl)-3-(2-(difluoromethoxy)-6-methylpyridin-3-yl)-1-(2-isopropylphenyl)urea] | > 8.00 | 
CC(=O)N1CC(N(C(=O)Nc2ccc(C)nc2OC(F)F)c2ccccc2C(C)C)C1 [Example 67, 1-(1-acetylazetidin-3-yl)-3-(2-(difluoromethoxy)-6-methylpyridin-3-yl)-1-(2-isopropylphenyl)urea] |  | 7.00 to 8.00
CC(=O)N1CC[C@H](N(C(=O)Nc2ccc(C)nc2OC(F)F)c2ccccc2C(C)C)C1 [Example 68, (S)-1-(1-acetylpyrrolidin-3-yl)-3-(2-(difluoromethoxy)-6-methylpyridin-3-yl)-1-(2-isopropylphenyl)urea] |  | 7.00 to 8.00
CC(=O)N1C[C@@H]2[C@H](C1)[C@H]2N(C(=O)Nc1ccc(C)nc1OC(F)F)c1ccccc1C(C)C [Example 69, 1-((1R,5S,6s)-3-acetyl-3-azabicyclo[3.1.0]hexan-6-yl)-3-(2-(difluoromethoxy)-6-methylpyridin-3-yl)-1-(2-isopropylphenyl)urea] | 6.00 to 7.00 | 
CC(=O)N1CC2(CC(N(C(=O)Nc3ccc(C)nc3OC(F)F)c3ccccc3C(C)C)C2)C1 [Example 70, 1-(2-acetyl-2-azaspiro[3.3]heptan-6-yl)-3-(2-(difluoromethoxy)-6-methylpyridin-3-yl)-1-(2-isopropylphenyl)urea] |  | 6.00 to 7.00
CC(=O)N1CC[C@@H]1CN(C(=O)Nc1ccc(C)nc1OC(F)F)c1ccccc1C(C)C [Example 71, (R)-1-((1-acetylazetidin-2-yl)methyl)-3-(2-(difluoromethoxy)-6-methylpyridin-3-yl)-1-(2-isopropylphenyl)urea] |  | < 6.00
